Measured values as given in paper PMC10302146, “Dual Anta-Inhibitors Targeting Protein Kinase CK1δ and A2A Adenosine Receptor Useful in Neurodegenerative Disorders” (Molecules, 2023).

What was measured:
[1] = biological target: human recombinant A2AAR; parameters: method as in PMID 37259317; details: [3H]NECA, membranes from CHO cells stably transfected; means ± standard errors; read-out: KiA2A; cited from earlier work
[2] = biological target: human recombinant A3AR; parameters: method as in PMID 37259317; details: [3H]HEMADO, membranes from CHO cells stably transfected; means ± standard errors; read-out: KiA3; cited from earlier work
[3] = test system: N13 microglial cells; test: N13 cell viability, ligand pretreatment 60 min then CK cocktail 48 h (CK1δ inhibition protocol); type: cell-based
[4] = test system: N13 microglial cells; test: N13 cell viability (CellTiter 96 AQueous One, MTS), ligands alone; type: cell-based; details: absence of CK cocktail
Protocol: Starting from these observations, since this double effect could be a suitable strategy for the treatment of chronic neurodegenerative diseases, in which neuroinflammation plays a crucial role, these compounds were tested on an in vitro model of neuroinflammation in comparison with the reference compounds. The experiments were performed using N13 microglial cells. The colorimetric method CellTiter 96® AQueous One Solution Cell Proliferation assay was used to determine the number of live cells in cytotoxicity or proliferation assays. The tetrazole compound MTS was bio-reduced by the cells into formazan, a colored product soluble in the cellular medium. The percentage of cell viability was analyzed through an absorbance reading at 492 nm. The concentrations of ligands were chosen based on the results of binding assays. Specifically, lower, similar, and higher concentrations than the Ki value were used.
Experiments were performed in triplicate.

[5] = test system: N13 cell line; test: Griess assay, nitrite production (antioxidant effect); type: cell-based; details: for antioxidant activity (Griess Reagent System): compound 1 7500 nM, incubated for 1 hr, vs. ZM241385 10 nM
Source text: In addition, since oxidative stress has received extensive attention as one important entry point in the pathogenesis of neurodegenerative diseases, the potential antioxidant profile of compounds 1 and 2 was investigated. Oxidative stress and neuroinflammation play synergistic roles in the promotion of neurodegenerative disease progression. During a CNS insult, there is an activation of microglial cells, which stimulate immune responses to instigate tissue repair. If the triggering cause of the immune response is eradicated, the immune response resolves, but if the initial stress persists, it will lead to an overproduction of neurotoxic factors such as chemokines and proinflammatory cytokines such as Tumor Necrosis Factor-α (TNF-α) and Interleukin-1β (IL-1β). This pathological state will lead to an overproduction of ROS and a state of oxidative stress. High levels of ROS inactivate or damage proteins, leading to cellular degeneration and death. Furthermore, ROS can activate proinflammatory pathways, further promoting a harmful environment for vulnerable neurons. In light of this, the potential antioxidant capacity of compounds was studied. […] The combination of anti-inflammatory and antioxidant activities makes compound 2 particularly appealing in counteracting two of the factors involved in the pathogenesis of neurodegenerative pathologies.
The N13 cell line was introduced into a 96-well UV-VIS transparent plate at a population of 1 × 10^4 cells per well in 98 μL of DMEM and incubated overnight. […] After 24 h of incubation, the media from each well was transferred into another 96-well plate, and then 50 µL of the sulphanilamide solution was placed into the wells. After 10 min of incubation at room temperature (rt), 50 µL of the NED solution was dispensed to all wells, and the plate was incubated at rt for an additional 5–10 min. After half an hour, absorbance was measured in the microplate reader GENiosPro using a 520–550 nm filter. All measurements were reproduced in 3–5 replicates. The nitric oxide formation was investigated by measuring nitrite (NO^2−), which is one of two primary breakdown products of NO. A nitrite standard reference curve was used for quantitative evaluation of the concentration of NO^2− in samples.

Structure (SMILES)	Ki [1] [nM]	Ki [2] [nM]	viability at 40 µM ([3]; N13, 40 µM 60 min before CK cocktail 48 h, CK cocktail alone 79% ± 1.1 vs. control) [%]	cell viability vs. control ([4]; 0.625 µM, 30 min)	cell viability vs. control ([4]; 7.5 µM, 30 min)	cell viability vs. control ([4]; 7.5 µM, 60 min)	antioxidant activity (Griess Reagent System) ([5]; compound 2 4500 nM)	cell viability ([3]; 25 µM 60 min before CK cocktail 48 h, CK cocktail alone 79% ± 1.1 vs. control (Figure 6))	effect of NECA on the neuroprotective effect of the compound ([3]; compound 25 µM 60 min before CK cocktail 48 h, then NECA 10 µM)	cell viability vs. control ([4]; 0.375 µM, 30 min)	cell viability vs. control ([4]; 4.5 µM, 60 min)	cell viability vs. control ([4]; 0.375 and 0.75 µM, 60 min)	cell viability vs. control ([4]; all concentrations (0.375, 0.75, 4.5 µM), 30 min)	amount of nitrite produced vs. control ([5]; 4500 nM)	compensation of oxidative stress caused by the CK cocktail ([5]; compound 2 4500 nM, ZM241385 10 nM)
CN(C)c1nc(N)c2ncn(C3CCCC3)c2n1 [compound 1, 9-Cyclopentyl-N2,N2-dimethyl-9H-purine-2,6-diamine]	123 ± 2	2880 ± 695	85	112% ± 2.4	lower cell viability with respect to the control	cell viability similar to the control	no significant antioxidant activity								
CN(C)c1nc(NCc2nc3ccccc3[nH]2)c2ncn(C3CCCC3)c2n1 [compound 2, N^6-methyl-(2-benzimidazolyl)-2-dimethyamino-9-cyclopentyladenine]	76.2 ± 173	1150 ± 107					important antioxidant effect similar to that of the reference compound	94% ± 2.2	ineffective	86% ± 1.2	109% ± 1.4	decrease in cell viability similar to 30 min of incubation	decrease in cell viability	inferior to that revealed in the control	successfully compensated
